In patent US9637483B2, “Heterocyclic compound” (TAKEDA PHARMACEUTICAL COMPANY LIMITED, priority 2013, dated 2017):

Tests used:
Type in all cases: biochemical
[1] = molecular target: T1, JAK3 (Homo sapiens, UniProt P52333); experiment: JAK3 enzyme inhibition test (LANCE method); settings: 1 μM test compound; read-out: JAK3 enzyme inhibitory activity (%, 1 μM)
T1 construct: purchased Invitrogen
T1 sequence (P52333 1-1124): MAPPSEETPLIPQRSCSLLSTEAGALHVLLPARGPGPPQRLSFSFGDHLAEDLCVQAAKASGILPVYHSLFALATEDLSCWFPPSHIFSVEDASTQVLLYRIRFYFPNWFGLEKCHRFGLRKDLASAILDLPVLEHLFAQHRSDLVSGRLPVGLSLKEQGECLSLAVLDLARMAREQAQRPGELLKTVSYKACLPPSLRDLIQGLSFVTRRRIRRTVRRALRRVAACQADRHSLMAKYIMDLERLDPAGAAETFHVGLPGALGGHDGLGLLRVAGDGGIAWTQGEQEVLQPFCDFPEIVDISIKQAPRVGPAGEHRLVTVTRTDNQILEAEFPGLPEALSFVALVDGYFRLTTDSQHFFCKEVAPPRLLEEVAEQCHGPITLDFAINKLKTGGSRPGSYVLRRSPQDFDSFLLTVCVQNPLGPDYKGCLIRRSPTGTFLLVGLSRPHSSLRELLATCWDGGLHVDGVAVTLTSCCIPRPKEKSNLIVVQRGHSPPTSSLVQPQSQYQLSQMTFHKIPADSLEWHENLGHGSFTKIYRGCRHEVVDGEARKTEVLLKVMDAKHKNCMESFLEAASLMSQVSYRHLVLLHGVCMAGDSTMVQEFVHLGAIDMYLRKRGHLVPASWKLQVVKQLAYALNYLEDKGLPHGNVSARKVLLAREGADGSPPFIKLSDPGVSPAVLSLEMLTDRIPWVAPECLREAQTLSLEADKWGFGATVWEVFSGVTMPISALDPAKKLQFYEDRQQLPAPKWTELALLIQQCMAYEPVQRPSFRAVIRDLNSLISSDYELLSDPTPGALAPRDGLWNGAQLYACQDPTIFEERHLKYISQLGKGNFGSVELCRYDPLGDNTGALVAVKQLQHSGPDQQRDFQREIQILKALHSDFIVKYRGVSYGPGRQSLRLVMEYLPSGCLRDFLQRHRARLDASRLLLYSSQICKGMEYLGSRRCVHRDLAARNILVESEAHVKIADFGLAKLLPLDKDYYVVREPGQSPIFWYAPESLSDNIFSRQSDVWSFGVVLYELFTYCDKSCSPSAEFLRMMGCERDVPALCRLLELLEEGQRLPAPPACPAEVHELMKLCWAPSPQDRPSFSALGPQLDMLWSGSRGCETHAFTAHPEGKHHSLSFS
Procedure, shortened: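 Recombinant JAK3 (12 ng/mL solution) with ULight-JAK1 peptide (300 nM solution) and ATP (15 μM solution) in HEPES pH 7.5 buffer, 1 h at room temperature. EDTA stop with Eu-anti-phosphotyrosine antibody; TR-FRET at 665 nm. Inhibition relative to enzyme-free wells as 100%.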

[2] = molecular target: T2, JAK1 (Homo sapiens, UniProt P23458); experiment: JAK1 enzyme inhibition test (LANCE method); settings: 1 μM test compound; read-out: JAK1 enzyme inhibitory activity (%, 1 μM)
T2 construct: purchased Invitrogen
Procedure, shortened: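 TR-FRET (LANCE) with ULight-JAK1 peptide (300 nM working solution) and ATP (150 μM working solution) in HEPES pH 7.5, MgCl2, EGTA, DTT buffer; 1 h at room temperature. EDTA stop plus Eu-anti-phosphotyrosine antibody, 665 nm read after 1 h. Inhibition relative to enzyme-free wells as 100%.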

[3] = molecular target: T3, TYK2 (Homo sapiens, UniProt P29597); experiment: TYK2 enzyme inhibition test (LANCE method); settings: 1 μM test compound; read-out: TYK2 enzyme inhibitory activity (%, 1 μM)
T3 construct: purchased Invitrogen
Procedure, shortened: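 Recombinant TYK2 (375 ng/mL working solution) with ULight-JAK1 peptide (300 nM working solution) and ATP (30 μM working solution) in HEPES pH 7.5 buffer with MgCl2, EGTA, DTT, Tween20, BSA, reacted 1 h at RT. EDTA-stopped, Eu-anti-phosphotyrosine TR-FRET read at 665 nm; inhibition relative to enzyme-free wells as 100%.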

[4] = molecular target: T4, JAK2 (Homo sapiens, UniProt O60674); experiment: JAK2 enzyme inhibition test (LANCE method); settings: 1 μM test compound; read-out: JAK2 enzyme inhibitory activity (%, 1 μM)
T4 construct: purchased Invitrogen
Procedure, shortened: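 Recombinant JAK2 (6 ng/mL solution) phosphorylated ULight-JAK1 peptide (300 nM solution) with ATP (45 μM solution) in pH 7.5 HEPES/MgCl2/DTT buffer for 1 hr at room temperature. After EDTA stop and europium anti-phosphotyrosine antibody for 1 hr, TR-FRET read at 665 nm; inhibition relative to enzyme-free wells as 100%.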

T2 sequence (P23458 whole entry): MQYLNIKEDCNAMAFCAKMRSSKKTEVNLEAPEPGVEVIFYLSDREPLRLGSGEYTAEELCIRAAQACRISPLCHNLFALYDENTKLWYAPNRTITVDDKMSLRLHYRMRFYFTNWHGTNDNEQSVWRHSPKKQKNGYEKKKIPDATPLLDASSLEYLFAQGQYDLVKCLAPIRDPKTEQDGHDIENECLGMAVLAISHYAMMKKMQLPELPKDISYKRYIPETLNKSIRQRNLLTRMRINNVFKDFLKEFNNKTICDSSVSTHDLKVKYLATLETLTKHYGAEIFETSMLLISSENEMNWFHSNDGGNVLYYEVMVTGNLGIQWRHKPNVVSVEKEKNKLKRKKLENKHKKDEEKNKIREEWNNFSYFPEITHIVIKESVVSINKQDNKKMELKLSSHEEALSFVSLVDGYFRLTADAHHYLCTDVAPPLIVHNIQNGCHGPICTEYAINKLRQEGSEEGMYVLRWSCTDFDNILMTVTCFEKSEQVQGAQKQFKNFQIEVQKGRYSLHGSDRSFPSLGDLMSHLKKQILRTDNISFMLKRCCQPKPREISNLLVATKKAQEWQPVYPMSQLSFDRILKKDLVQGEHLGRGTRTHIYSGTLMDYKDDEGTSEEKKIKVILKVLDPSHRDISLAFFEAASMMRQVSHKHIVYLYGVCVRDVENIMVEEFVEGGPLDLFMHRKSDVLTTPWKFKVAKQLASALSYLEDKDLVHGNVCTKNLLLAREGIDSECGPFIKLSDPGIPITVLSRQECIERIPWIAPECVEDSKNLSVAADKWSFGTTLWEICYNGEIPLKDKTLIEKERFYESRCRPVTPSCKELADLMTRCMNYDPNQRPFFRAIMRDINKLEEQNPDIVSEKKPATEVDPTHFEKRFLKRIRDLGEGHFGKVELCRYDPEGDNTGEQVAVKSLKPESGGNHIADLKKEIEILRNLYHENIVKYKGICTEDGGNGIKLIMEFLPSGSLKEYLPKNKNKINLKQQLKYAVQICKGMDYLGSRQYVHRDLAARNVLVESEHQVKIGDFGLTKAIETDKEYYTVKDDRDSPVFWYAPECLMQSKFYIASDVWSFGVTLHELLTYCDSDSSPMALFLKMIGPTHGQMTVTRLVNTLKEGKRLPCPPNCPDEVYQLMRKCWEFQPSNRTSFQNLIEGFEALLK
T4 sequence (O60674 whole entry): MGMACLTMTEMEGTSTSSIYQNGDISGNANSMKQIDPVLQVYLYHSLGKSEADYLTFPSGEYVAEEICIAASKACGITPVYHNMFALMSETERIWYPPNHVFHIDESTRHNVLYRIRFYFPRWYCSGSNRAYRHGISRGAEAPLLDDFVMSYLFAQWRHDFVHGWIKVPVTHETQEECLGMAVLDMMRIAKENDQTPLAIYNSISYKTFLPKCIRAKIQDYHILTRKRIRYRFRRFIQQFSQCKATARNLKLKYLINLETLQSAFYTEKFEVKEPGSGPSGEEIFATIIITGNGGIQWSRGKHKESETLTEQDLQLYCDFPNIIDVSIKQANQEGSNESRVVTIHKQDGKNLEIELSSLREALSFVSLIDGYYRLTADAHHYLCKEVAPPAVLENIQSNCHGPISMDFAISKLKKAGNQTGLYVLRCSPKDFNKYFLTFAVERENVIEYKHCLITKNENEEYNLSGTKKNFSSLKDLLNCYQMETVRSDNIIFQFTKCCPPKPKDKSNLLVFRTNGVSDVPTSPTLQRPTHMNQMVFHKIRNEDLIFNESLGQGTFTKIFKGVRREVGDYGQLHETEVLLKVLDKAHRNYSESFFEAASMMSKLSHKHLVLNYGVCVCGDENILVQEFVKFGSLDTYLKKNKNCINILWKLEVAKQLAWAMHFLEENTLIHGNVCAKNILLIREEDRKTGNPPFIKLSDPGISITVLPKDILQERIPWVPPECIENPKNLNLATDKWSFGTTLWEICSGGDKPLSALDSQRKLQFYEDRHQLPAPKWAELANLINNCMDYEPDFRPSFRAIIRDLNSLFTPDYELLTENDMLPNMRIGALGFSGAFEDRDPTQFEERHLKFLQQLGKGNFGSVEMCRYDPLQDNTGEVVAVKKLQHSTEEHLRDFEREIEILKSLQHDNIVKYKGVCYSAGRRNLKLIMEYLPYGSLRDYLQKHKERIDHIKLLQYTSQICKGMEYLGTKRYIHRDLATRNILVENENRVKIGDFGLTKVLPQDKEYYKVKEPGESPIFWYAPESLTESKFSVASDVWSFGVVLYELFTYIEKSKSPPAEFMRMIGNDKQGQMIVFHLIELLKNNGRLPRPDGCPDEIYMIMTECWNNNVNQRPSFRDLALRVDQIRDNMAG
T3 sequence (P29597 whole entry): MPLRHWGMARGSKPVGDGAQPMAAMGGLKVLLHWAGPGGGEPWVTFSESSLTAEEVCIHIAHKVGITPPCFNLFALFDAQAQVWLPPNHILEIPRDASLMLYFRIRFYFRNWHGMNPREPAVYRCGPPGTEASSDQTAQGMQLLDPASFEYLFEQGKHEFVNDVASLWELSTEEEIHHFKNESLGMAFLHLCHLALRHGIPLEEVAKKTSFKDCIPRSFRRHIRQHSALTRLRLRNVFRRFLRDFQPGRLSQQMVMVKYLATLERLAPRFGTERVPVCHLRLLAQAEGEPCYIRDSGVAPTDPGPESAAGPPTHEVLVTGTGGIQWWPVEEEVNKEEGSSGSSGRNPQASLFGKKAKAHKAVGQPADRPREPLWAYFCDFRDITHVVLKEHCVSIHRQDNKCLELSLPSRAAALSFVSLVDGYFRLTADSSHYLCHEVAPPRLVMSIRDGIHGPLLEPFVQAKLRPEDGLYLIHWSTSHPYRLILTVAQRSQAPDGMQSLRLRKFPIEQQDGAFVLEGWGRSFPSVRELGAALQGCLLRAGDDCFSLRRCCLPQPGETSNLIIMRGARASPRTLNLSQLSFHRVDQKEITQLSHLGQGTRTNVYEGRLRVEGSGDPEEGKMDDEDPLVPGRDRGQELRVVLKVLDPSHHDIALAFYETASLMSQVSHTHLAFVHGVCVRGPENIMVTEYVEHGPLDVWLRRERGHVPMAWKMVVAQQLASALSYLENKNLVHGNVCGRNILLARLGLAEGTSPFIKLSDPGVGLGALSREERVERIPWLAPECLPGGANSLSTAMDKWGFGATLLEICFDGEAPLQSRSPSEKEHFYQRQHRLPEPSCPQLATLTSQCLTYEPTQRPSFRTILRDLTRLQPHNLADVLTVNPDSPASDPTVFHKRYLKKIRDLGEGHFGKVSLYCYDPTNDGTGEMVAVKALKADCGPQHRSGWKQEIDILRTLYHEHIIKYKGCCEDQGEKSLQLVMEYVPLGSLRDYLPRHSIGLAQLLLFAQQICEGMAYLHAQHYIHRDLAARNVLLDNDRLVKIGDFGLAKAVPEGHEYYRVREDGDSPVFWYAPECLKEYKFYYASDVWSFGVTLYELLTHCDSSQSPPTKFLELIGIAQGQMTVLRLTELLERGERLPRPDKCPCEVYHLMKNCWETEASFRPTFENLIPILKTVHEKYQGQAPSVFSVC

Row | SMILES | inhibition at 1 µM [1] [%] | inhibition at 1 µM [2] [%] | inhibition at 1 µM [3] [%] | inhibition at 1 µM [4] [%]
1 | Cn1nc(-c2cn(C(C3CC3)C3CC3)c(=O)c3c(N)n[nH]c23)cc1N1CCN2CCC[C@@H]2C1 [Example 163, 3-amino-5-(dicyclopropylmethyl)-7-(5-((8aR)-hexahydropyrrolo[1,2-a]pyrazin-2(1H)-yl)-1-methyl-1H-pyrazol-3-yl)-1,5-dihydro-4H-pyrazolo[4,3-c]pyridin-4-one] | 100 | 100 | 101 | 100
2 | CO[C@@H]1CCN(c2cc(-c3cn(C(C4CC4)C4CC4)c(=O)c4c(N)n[nH]c34)nn2C)C1 [Example 164, 3-amino-5-(dicyclopropylmethyl)-7-(5-((3R)-3-methoxypyrrolidin-1-yl)-1-methyl-1H-pyrazol-3-yl)-1,5-dihydro-4H-pyrazolo[4,3-c]pyridin-4-one] | 100 | 99 | 101 | 99
3 | Cn1nc(-c2cn(C(C3CC3)C3CC3)c(=O)c3c(N)n[nH]c23)cc1C(F)(F)F [Example 165, 3-amino-5-(dicyclopropylmethyl)-7-(1-methyl-5-(trifluoromethyl)-1H-pyrazol-3-yl)-1,5-dihydro-4H-pyrazolo[4,3-c]pyridin-4-one] | 100 | 100 | 100 | 98
4 | Cn1nc(-c2cn(C(C3CC3)C3CC3)c(=O)c3c(N)n[nH]c23)cc1N1CC[C@H](O)C1 [Example 166, 3-amino-5-(dicyclopropylmethyl)-7-(5-((3S)-3-hydroxypyrrolidin-1-yl)-1-methyl-1H-pyrazol-3-yl)-1,5-dihydro-4H-pyrazolo[4,3-c]pyridin-4-one] | 100 | 100 | 101 | 99
5 | CO[C@H]1CCN(c2cc(-c3cn(C(C4CC4)C4CC4)c(=O)c4c(N)n[nH]c34)nn2C)C1 [Example 167, 3-amino-5-(dicyclopropylmethyl)-7-(5-((3S)-3-methoxypyrrolidin-1-yl)-1-methyl-1H-pyrazol-3-yl)-1,5-dihydro-4H-pyrazolo[4,3-c]pyridin-4-one] | 100 | 100 | 101 | 99
6 | Cn1nc(-c2cn(C(C3CC3)C3CC3)c(=O)c3c(N)n[nH]c23)cc1N1CCC[C@H]1CO [Example 168, 3-amino-5-(dicyclopropylmethyl)-7-(5-((2S)-2-(hydroxymethyl)pyrrolidin-1-yl)-1-methyl-1H-pyrazol-3-yl)-1,5-dihydro-4H-pyrazolo[4,3-c]pyridin-4-one] | 100 | 98 | 101 | 94
7 | Cn1nc(-c2cn(C(C3CC3)C3CC3)c(=O)c3c(N)n[nH]c23)cc1N1CC[C@@H](O)C1 [Example 169, 3-amino-5-(dicyclopropylmethyl)-7-(5-((3R)-3-hydroxypyrrolidin-1-yl)-1-methyl-1H-pyrazol-3-yl)-1,5-dihydro-4H-pyrazolo[4,3-c]pyridin-4-one] | 99 | 98 | 98 | 98
8 | Cn1nc(-c2cn(C(C3CC3)C3CC3)c(=O)c3c(N)n[nH]c23)cc1N1CCC(F)(F)C1 [Example 170, 3-amino-5-(dicyclopropylmethyl)-7-(5-(3,3-difluoropyrrolidin-1-yl)-1-methyl-1H-pyrazol-3-yl)-1,5-dihydro-4H-pyrazolo[4,3-c]pyridin-4-one] | 99 | 99 | 98 | 99
9 | CN(C[C@H]1CCCN1c1cc(-c2cn(C(C3CC3)C3CC3)c(=O)c3c(N)n[nH]c23)nn1C)C(=O)OC(C)(C)C [Example 171, tert-butyl(((2R)-1-(3-(3-amino-5-(dicyclopropylmethyl)-4-oxo-4,5-dihydro-1H-pyrazolo[4,3-c]pyridin-7-yl)-1-methyl-1H-pyrazol-5-yl)pyrrolidin-2-yl)methyl)methylcarbamate] | 98 | 93 | 98 | 94
10 | CNC[C@H]1CCCN1c1cc(-c2cn(C(C3CC3)C3CC3)c(=O)c3c(N)n[nH]c23)nn1C [Example 172, 3-amino-5-(dicyclopropylmethyl)-7-(1-methyl-5-((2R)-2-((methylamino)methyl)pyrrolidin-1-yl)-1H-pyrazol-3-yl)-1,5-dihydro-4H-pyrazolo[4,3-c]pyridin-4-one] | 98 | 93 | 98 | 98
11 | Cc1cc(-c2cn(C(C3CC3)C3CC3)c(=O)c3c(N)n[nH]c23)nn1C [Example 173, 3-amino-5-(dicyclopropylmethyl)-7-(1,5-dimethyl-1H-pyrazol-3-yl)-1,5-dihydro-4H-pyrazolo[4,3-c]pyridin-4-one] | 99 | 98 | 98 | 96
12 | Cn1nc(-c2cn(C(C3CC3)C3CC3)c(=O)c3c(N)n[nH]c23)cc1C(C)(C)O [Example 174, 3-amino-5-(dicyclopropylmethyl)-7-(5-(2-hydroxypropan-2-yl)-1-methyl-1H-pyrazol-3-yl)-1,5-dihydro-4H-pyrazolo[4,3-c]pyridin-4-one] | 99 | 99 | 98 | 98
13 | CC(=O)N(C)C[C@H]1CCCN1c1cc(-c2cn(C(C3CC3)C3CC3)c(=O)c3c(N)n[nH]c23)nn1C [Example 175, N-(((2R)-1-(3-(3-amino-5-(dicyclopropylmethyl)-4-oxo-4,5-dihydro-1H-pyrazolo[4,3-c]pyridin-7-yl)-1-methyl-1H-pyrazol-5-yl)pyrrolidin-2-yl)methyl)-N-methylacetamide] | 98 | 96 | 98 | 97
14 | CN(C[C@H]1CCCN1c1cc(-c2cn(C(C3CC3)C3CC3)c(=O)c3c(N)n[nH]c23)nn1C)S(C)(=O)=O [Example 176, N-(((2R)-1-(3-(3-amino-5-(dicyclopropylmethyl)-4-oxo-4,5-dihydro-1H-pyrazolo[4,3-c]pyridin-7-yl)-1-methyl-1H-pyrazol-5-yl)pyrrolidin-2-yl)methyl)-N-methylmethanesulfonamide] | 99 | 97 | 98 | 98
